Source: PMC3489029 (Journal of the American Chemical Society, 2012)

How the values were obtained:
[1] = target: cell wall binding domain of the endolysin PlyG (Bacillus phage Gamma, UniProt Q8LTE6); assay: biochemical; set-up: species or system Bacillus anthracis bacteriophage
[2] = target: cell wall binding domain of the endolysin PlyL (Bacillus anthracis, UniProt A0A6H3AMF3); assay: biochemical; set-up: species or system Bacillus anthracis bacteriophage
Sequence of cell wall binding domain of the endolysin PlyL (A0A6H3AMF3 160-234 limits assumed): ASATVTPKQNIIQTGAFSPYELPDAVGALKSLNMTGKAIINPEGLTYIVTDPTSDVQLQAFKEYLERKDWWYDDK

Sequence of cell wall binding domain of the endolysin PlyG (Q8LTE6 166-233 limits assumed): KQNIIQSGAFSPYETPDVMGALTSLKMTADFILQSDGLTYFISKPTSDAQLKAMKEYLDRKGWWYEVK

SMILES | Kd [1] | Kd [2] | fold reduced affinity compared to tetrasaccharide 3 [2] | binding to PlyL in words [2]
CC(=O)N[C@@H]1[C@H](O[C@H]2[C@H](O[C@H]3O[C@H](CO)[C@H](O)[C@H](O)[C@H]3O)[C@@H](NC(C)=O)[C@H](OCCCCCN)O[C@@H]2CO)O[C@H](CO)[C@@H](O[C@H]2O[C@H](CO)[C@@H](O[C@@H]3O[C@H](CO)[C@H](O)[C@H](O)[C@H]3O)[C@H](O[C@H]3O[C@H](CO)[C@H](O)[C@H](O)[C@H]3O)[C@H]2NC(C)=O)[C@@H]1O [Compound 1] | 23.3 ± 0.5 µM | 23 ± 2 µM | 10 fold | –
CC(=O)N[C@@H]1[C@H](O[C@H]2[C@H](O)[C@@H](NC(C)=O)[C@H](OCCCCCN)O[C@@H]2CO)O[C@H](CO)[C@@H](O[C@H]2O[C@H](CO)[C@@H](O)[C@H](O)[C@H]2NC(C)=O)[C@@H]1O [Compound 2] | 8.6 ± 0.4 µM | 13.5 µM | – | –
CC(=O)N[C@@H]1[C@H](O[C@H]2[C@H](O)[C@@H](NC(C)=O)[C@H](OCCCCCN)O[C@@H]2CO)O[C@H](CO)[C@@H](O[C@H]2O[C@H](CO)[C@@H](O[C@@H]3O[C@H](CO)[C@H](O)[C@H](O)[C@H]3O)[C@H](O)[C@H]2NC(C)=O)[C@@H]1O [Compound 3] | 2.1 ± 1.1 µM | 1.1 µM | – | exceptional high affinity
CC(=O)N[C@@H]1[C@H](O[C@H]2[C@H](O)[C@@H](NC(C)=O)[C@H](OCCCCCN)O[C@@H]2CO)O[C@H](CO)[C@@H](O[C@H]2O[C@H](CO)[C@@H](O)[C@H](O[C@H]3O[C@H](CO)[C@H](O)[C@H](O)[C@H]3O)[C@H]2NC(C)=O)[C@@H]1O [Compound 4] | 136 ± 7 µM | 153 ± 10 µM | – | complexed poorly with the protein
CC(=O)N[C@@H]1[C@H](O[C@H]2[C@H](O[C@H]3O[C@H](CO)[C@H](O)[C@H](O)[C@H]3O)[C@@H](NC(C)=O)[C@H](OCCCCCN)O[C@@H]2CO)O[C@H](CO)[C@@H](O[C@H]2O[C@H](CO)[C@@H](O)[C@H](O)[C@H]2NC(C)=O)[C@@H]1O [Compound 5] | 4.1 ± 0.5 µM | 6.2 ± 2 µM | – | –
CC(=O)N[C@@H]1[C@H](O[C@H]2[C@H](O)[C@@H](NC(C)=O)[C@H](OCCCCCN)O[C@@H]2CO)O[C@H](CO)[C@@H](O)[C@@H]1O [Compound 6] | 49 ± 2 µM | 110 ± 9 µM | – | –
CC(=O)N[C@@H]1[C@H](O[C@H]2[C@H](O)[C@@H](NC(C)=O)[C@H](OCCCCCN)O[C@@H]2CO)O[C@H](CO)[C@@H](O[C@H]2O[C@H](CO)[C@H](O)[C@H](O)[C@H]2NC(C)=O)[C@@H]1O [Compound 7] | 19.5 ± 7.5 µM | 43 ± 11 µM | – | –
